The source of these data is patent publication US8952033B2, “4-anilinofuro[2,3-b]quinoline derivatives, their preparation processes, and pharmaceutical compositions comprising the same” (Kaohsiung Medical University, priority 2011, dated 2015).

For orientation: AUC(0-inf) means total exposure, with the tail of the curve extrapolated. Usually MRT stands for a mean duration of stay, worked out from the concentration-time curve. One may read the Vss as a proportionality between amount in the body and measured concentration, not a real space. As a reminder, the Vz is the apparent volume that relates the amount in the body to the concentration in plasma or blood. Read a low Vz as little distribution into tissue. In general, Cmax refers to the highest concentration seen after dosing. As usually defined, the Tmax is the time at which the peak concentration occurs. As a reminder, the solubility is the concentration that dissolves in the medium under given conditions. A low value points to a poorly soluble substance.

Values after ≈ are worked out from the molar mass of the structure shown. Marks after values point to notes of the source that are not given here.

The subject of data set [1] is MCF-7 (breast cancer cell). Description: MTT antiproliferative assay (cell growth %, GI50), MCF-7. The class given is cell-based. As to conditions: for activity at 4000 µg/mL: 4 mg/ml; for activity at 4000 µg/mL / activity at 20000 µg/mL: 48 hours, MTT; for activity at 20000 µg/mL: 20 mg/ml. The method, then:
(§1) Antiproliferative activities of the compounds of this invention were evaluated substantially according to the method as described in Tseng, C. […] The cells were treated with the test compounds, i.e., the compounds of this invention (in dimethylsulfoxide (DMSO)), or DMSO for 48 hours.
(§2) Before and after the treatment with the test compounds or DMSO, 3-(4,5-dimethylthiazol-2-yl)-2,5-diphenyltetrazolium bromide (MTT, 2 mg/mL, 100 μL) was added to each of the cultures, followed by cultivation for 2 hours. The resultant formazan was dissolved by the addition of DMSO. Absorbance at 570 nm (OD570) was measured using a microtiter plate reader (Dynex MRX-II).
(§3) Determination of GI50 was conducted thrice for each test compound. GI50 is expressed as mean±SD.
A general note: Formazan colour is commonly taken as a measure of viable cells.

Data set [2] has as its system tubulin. As to conditions: Huang Y. T. et al. (2005); cited from earlier work.
A short description of data set [3]: Single-dose pharmacokinetic analysis in CD-1 mice. The format is in vivo. As to conditions: for Bioavailability: oral 20 mg/kg versus intravenous 2 mg/kg. How it is done: CD-1 mice were divided into two groups. The first group of mice (n=9) were used to assess the singe-dose pharmacokinetics of the test compounds after intravenous administration, and the second group of mice (n=9) were utilized to assess the singe-dose pharmacokinetics of the test compounds after oral administration. All of the mice were fasted from 4 hours before the administration of the test compounds until 4 hours after the administration of the test compounds.
The assessment for singe-dose pharmacokinetics of the test compounds after intravenous administration was performed as follows. The first group of mice were further randomly divided into three subgroups including compound 13a group (n=3), compound 14a group (n=3), and compound 1 group (n=3). Compounds 13a, 14a, 1 (in polyethylene glycol 400/ethanol/water (30/5/65, v/v/v)) were respectively administered to the mice in compound 13a group, compound 14a group, and compound 1 group at a dose of 2 mg/kg via tail vein injection. Blood samples (0.25 mL) were collected from the mice by virtue of cardiac puncture right before the intravenous administration, and at 2 min, 5 min, 15 min, 30 min, 1 hr, 1.5 hr, 2 hr, 4 hr, 6 hr, 9 hr, 24 hr, and 27 hr after the intravenous administration.
The assessment for singe-dose pharmacokinetics of the test compounds after oral administration was conducted as follows. The second group of mice were further randomly divided into three subgroups including compound 13a group (n=3), compound 14a group (n=3), and compound 1 group (n=3). Compounds 13a, 14a, 1 (in 0.5% methylcellulose) were respectively administered to the mice in compound 13a group, compound 14a group, and compound 1 group at a dose of 20 mg/kg via tube feeding. Blood samples (0.25 mL) were collected from the mice by virtue of cardiac puncture right before the oral administration, and at 15 min, 30 min, 1 hr, 1.5 hr, 2 hr, 4 hr, 6 hr, 9 hr, 24 hr, and 27 hr after the oral administration.
Each of the blood samples was placed in a 0.5 mL Microtainer® tube containing anticoagulant EDTA-K2, followed by mixing evenly. Centrifugation at 7000 g and 4° C. was conducted for 5 minutes. Plasma was collected and was mixed uniformly with a proper amount of acetonitrile, followed by centrifugation. The resultant supernatant was acquired, and was injected into a reversed-phase Biosil ODS column so as to determine the concentration of the respective test compound in plasma (i.e., the plasma concentration of the respective test compound) using a LC-MS/MS system (Waters 2795 LC and Micromass Quattro Ultima). The singe-dose pharmacokinetic parameters of the respective test compound were calculated from the obtained concentration of the respective test compound in plasma (i.e., the obtained plasma concentration of the respective compound) at different time points using WinNonlin Standard Program (version 3.1, Pharsight Corp.)

Data set [4] in a line: Determination of solubility in water. The format is physicochemical. Conditions: 25±0.1° C., stirred overnight, UV-VIS; for solubility: water, 25 °C, thermodynamic from solid. How it is done:
Determination of solubility in water was conducted substantially according to the method as described in Vougogiannopoulou, K. et al. (2008), J. Med. Chem., 51:6421-6431. An excess amount of the respective test compound was added into water, followed by sonication for 5 minutes. The resultant mixture was stirred at ambient temperature (25±0.1° C.) overnight. Centrifugation at 4000 rpm and 25° C. was conducted for 5 minutes. Absorbance of the sample of the respective test compound was measured at 315-420 nm using a UV-VIS spectrophotometer (JASCO UV-Visible V570). For each test compound, a standard curve was generated by plotting concentrations of standard solutions and the corresponding absorbances. The absorbance of the sample of each test compound was then converted to solubility in water (μg/mL) using the corresponding standard curve.

The test system of data set [5] is NCI-H460 (non-small cell lung carcinoma cell). The data set can be described thus: MTT antiproliferative assay (cell growth %, GI50), NCI-H460. The class given is cell-based. As to conditions: for activity at 4000 µg/mL: 4 mg/ml; for activity at 4000 µg/mL / activity at 20000 µg/mL: 48 hours, MTT; for activity at 20000 µg/mL: 20 mg/ml. The method, then:
as §1, §2, §3

The conditions of data set [6]: in vitro anticancer assay, earlier work of the applicants; cited from earlier work.
The test system of data set [7] is SF-268 (central nervous system carcinoma cell). The data set can be described thus: MTT antiproliferative assay (cell growth %, GI50), SF-268. The class given is cell-based. How it is done: as §1, §2, §3
In data set [8] the test system is MRC-5 (human lung fibroblast cell). Description: GI50 determination on normal cell line MRC-5. The format is cell-based. As to conditions: MRC5, normal cell line, mean±SD, read-out: GI50 MRC-5. How it is done: as §1, §2, §3
Where [9] appears, read: intravenous administration, 2 mg/kg.
[10] abbreviates: intravenous administration, 2 mg/kg, extrapolated plasma concentration at 0 hr.
Setting [11] is: intravenous administration, 2 mg/kg, from 0.5-1.5 hr (compd. 1) or 9-27 hr (13a, 14a).
The mark [12] stands for this setting: oral administration, 20 mg/kg, from 2-6 hr (compd. 1), 2-24 hr (13a), 2-9 hr (14a).

As for `CC(=O)c1ccc(Nc2c3ccccc3nc3occc23)cc1` [Compound 1, 1-(4-(furo[2,3-b]quinolin-4-ylamino)phenyl)ethanone, reference compound], in data set [1] (Homo sapiens, MCF7), the activity at 4000 µg/mL turned out to be 69% and the activity at 20000 µg/mL came to 61%. Besides, in data set [2], the Effect on tubulin result was “binding to tubulin and inhibiting tubulin polymerization”. Further, in data set [3] (setting [9]), the “AUC(0-inf)” value is 211 ng·h/mL, the CL stood at 158 mL/min/kg, the MRT was determined as 0.1 h and the “Time after which compound was unable to be detected in plasma” value (“Time after which compound was unable” below) was 1.5 h. Moreover, in data set [3] (setting [9]), the Vss was 1.2 L/kg and the Vz came out at 4.1 L/kg. In addition, in data set [3] (setting [10]), the highest concentration (Cmax) was 3064 ng/mL. Also, in data set [3] (setting [11]), the t1/2 is 0.3^b hr. This compound also registered a Bioavailability in data set [3] of 2.1%. Besides, in data set [3] (oral administration, 20 mg/kg), the “AUC(0-inf)” value stood at 45 ng·h/mL, the Cmax was 21 ng/mL, the mean residence time (MRT) amounted to 2.7 h and the “Time after which compound was unable” value came out at 6 h. The time to peak (Tmax) in data set [3] (oral administration, 20 mg/kg) amounted to 0.3 h. In addition, in data set [3] (setting [12]), the t1/2 was 2.0^c hr. This compound also returned a solubility in data set [4] of 6 µg/mL (≈ 19.8 µM). Further, in data set [5] (Homo sapiens, NCI-H460), the activity at 4000 µg/mL stood at 33% and the activity at 20000 µg/mL was 30%. Moreover, the “Antiproliferative potency compared with amsacrine (m-AMSA)” value in data set [6] was “higher than that of amsacrine”.
For the compound `C/C(=N\O)c1ccc(Nc2c3ccccc3nc3occc23)cc1` [Compound 2, (E)-1-(4-(furo[2,3-b]quinolin-4-ylamino)phenyl)ethanone oxime, reference compound], in data set [1] (Homo sapiens, MCF7), the activity at 4000 µg/mL came to 64% and the activity at 20000 µg/mL amounted to 58%. The solubility in data set [4] worked out at 10 µg/mL (≈ 31.5 µM). In addition, in data set [5] (Homo sapiens, NCI-H460), the activity at 4000 µg/mL was found to be 27% and the activity at 20000 µg/mL was found to be 21%. For the same compound, the “Antiproliferative potency compared with amsacrine (m-AMSA)” value in data set [6] is “comparable to that of amsacrine”.
Take `CO/N=C(\C)c1ccc(Nc2c3ccccc3nc3occc23)cc1` [Compound 3, (E)-1-(4-(furo[2,3-b]quinolin-4-ylamino)phenyl)ethanone O-methyloxime, reference compound]: the activity at 4000 µg/mL in data set [1] (Homo sapiens, MCF7) came out at 63%; in data set [5] (Homo sapiens, NCI-H460), 51%. The activity at 20000 µg/mL was found to be 37% in data set [1] (Homo sapiens, MCF7) and 23% in data set [5] (Homo sapiens, NCI-H460). Besides, in data set [4], the solubility is 8 µg/mL (≈ 24.1 µM). Moreover, the “Antiproliferative potency compared with amsacrine (m-AMSA)” value in data set [6] is given as “comparable to that of amsacrine”.
On to `C/C(=N\OCCN)c1ccc(Nc2c3ccccc3nc3occ(Cl)c23)cc1` [Compound 14a, (E)-1-(4-(3-Chlorofuro[2,3-b]quinolin-4-ylamino)phenyl)ethanone O-2-aminoethyl oxime], for which the “SI SF-268” value in data set [7] (GI50 MRC-5 / GI50 SF-268) stood at 5.15. The GI50 in data set [7] (Homo sapiens, SF-268, mean±SD, read-out: GI50 SF-268) was determined as 9.14 ± 0.72 µM. In addition, the “SI MCF-7” value in data set [1] (GI50 MRC-5 / GI50 MCF-7) worked out at 1.52. Besides, in data set [1] (Homo sapiens, MCF7), the activity at 4000 µg/mL was found to be 59% and the activity at 20000 µg/mL is -1%. Further, the GI50 in data set [1] (Homo sapiens, MCF7, mean±SD, read-out: GI50 MCF-7) was 31.01 ± 0.03 µM. Besides, in data set [3] (setting [9]), the “AUC(0-inf)” value was determined as 409.8 ng·h/mL, the CL came out at 81.3 mL/min/kg, the mean residence time MRT stood at 6.1 h and the Vss is listed as 30.0 L/kg. For the same compound, in data set [3] (setting [9]), the volume of distribution (Vz) turned out to be 103.8 L/kg. Further, the maximum concentration (Cmax) in data set [3] (setting [10]) is given as 3601 ng/mL. The t1/2 in data set [3] (setting [11]) is given as 14.7^d hr. The same compound gave a Bioavailability in data set [3] of 5.9%. In addition, in data set [3] (oral administration, 20 mg/kg), the “AUC(0-inf)” value was 242.6 ng·h/mL, the peak concentration (Cmax) came to 114.3 ng/mL, the MRT is 2.8 h and the “Time after which compound was unable” value is 9 h. Besides, the Tmax in data set [3] (oral administration, 20 mg/kg) is 1.0 h. The t1/2 in data set [3] (setting [12]) is on record as 1.7^f hr. Moreover, the Solubility in water in data set [4] was determined as 25 µg/mL (≈ 63.3 µM). Also, the “SI NCI-H460” value in data set [5] (GI50 MRC-5 / GI50 NCI-H460) worked out at 66.25. Also, in data set [5] (Homo sapiens, NCI-H460), the activity at 4000 µg/mL worked out at 32% and the activity at 20000 µg/mL was -1%. Further, the GI50 in data set [5] (Homo sapiens, NCI-H460, mean±SD, read-out: GI50 NCI-H460) was 0.71 ± 0.02 µM. In addition, in data set [8], the GI50 turned out to be 47 ± 1.21 µM.
